Data: paper PMC12040169 (PLOS Biology, 2025)

assay: in vitro; conditions: human, hela cells

Row | SMILES | viability at 28.5 h, 10 µM
1 | CC1CN(C(=O)Oc2ccccc2)C(C)CN1CCCC(c1ccc(F)cc1)c1ccc(F)cc1 (stereo not drawn) [CBK024993C] | 87.4%

same assay, conditions: human, hela cells, % viability

Row | SMILES | viability at 28.5 h, 10 µM
2 | COC(=O)COc1ccc2cccc(-n3cnnn3)c2c1 [CBK270173] | 84.7%
3 | Cn1c(SCC(=O)O)nnc1-c1cc(Br)ccc1O [CBK269150] | 103%
4 | CN(Cc1nc(-c2ccccc2)no1)C(=O)C1CC2(CCNCC2)CN1 (stereo not drawn) [CBK306585] | 88.7%
5 | N#Cc1c(NC(=O)CSc2nnc(-c3ccncc3)o2)sc2c1CCCC2 [CBK266374] | 99.2%
6 | O=C(O)CSc1nnc(-c2ccncc2)n1-c1ccccc1 [CBK264426] | 109%
7 | COc1ccccc1C(CC(=O)O)c1ccc2c(c1)OCO2 (stereo not drawn) [CBK286971] | 91.2%
8 | CCCCOc1ccc(C(=O)N(C)c2ccc(CCC)cc2)cc1 [CBK161619] | 95.9%
9 | O=C(c1ccc(-n2ccnc2)c(-n2cccc2)c1)N1CCSCC1 [CBK285364] | 97.4%
10 | CC(C)(CN)CN(Cc1ccccc1C(F)(F)F)C(=O)Nc1c(F)cccc1F [CBK026822C] | 109%
11 | Cc1c(C(=O)Nc2ccncc2)nnn1-c1cccc(C(F)(F)F)c1 [CBK107390] | 102%
12 | Cc1ccnc(SCC(=O)Nc2sc3c(c2C(=O)Nc2ccccc2)CCCC3)n1 [CBK266348] | 106%
13 | c1ccc(N2CCN(c3nc4cc5c(cc4s3)OCCO5)CC2)cc1 [CBK287499] | 93.6%
14 | CCN1CC(C(=O)N2CCCC(COc3ccc(F)cc3)C2)CC1=O (stereo not drawn) [CBK282028] | 85.3%
15 | CC1=NN(c2cccc(S(=O)(=O)O)c2C(=O)Nc2ccccc2)C(=O)C1 [CBK017343] | 98.4%
16 | O=C(Nc1ccccc1)Nc1ccc([N+](=O)[O-])cc1 [CBK016975] | 99.6%
17 | O=C(N[C@@H](Cn1cc(Cl)c(=O)[nH]c1=O)C(=O)O)C1CC1 [CBK289649] | 88.3%
18 | O=C(O)CCCC(=O)Nc1cc([N+](=O)[O-])ccc1O [CBK265592] | 102%
19 | CCOC(=O)C1CCCN(Cc2nc(-c3ccc(F)cc3F)oc2C)C1 (stereo not drawn) [CBK306749] | 94.3%
20 | O=C(CN1C(=O)N2CCCN=C2c2ccccc21)NC1CCCCC1 [CBK284396] | 88.8%
21 | N#CCCOc1nc2ccccc2nc1N1CCCC1 [CBK115763] | 96.2%
22 | CN(C)S(=O)(=O)c1ccc(C(=O)C2=C(O)C(=O)N(CCN3CCOCC3)C2c2ccccc2)cc1 (stereo not drawn) [CBK264540] | 111%
23 | CN(C(=O)NC1CCN(Cc2cccc(O)c2)CC1)C1CCS(=O)(=O)C1 (stereo not drawn) [CBK306538] | 83.5%
24 | O=C(CN1CCCC1)Nc1sc2c(c1C(=O)Nc1ccc(Br)cc1)CCC2 [CBK265060] | 94.8%

Row | SMILES | viability at 28.5 h, 10 µM
25 | O=C(O)CCC(C(=O)O)N1C(=O)c2cc(Cl)c(Cl)cc2C1=O (stereo not drawn) [CBK264156] | 113%
26 | CCNC(=O)c1cn(Cc2ccccc2)nn1 [CBK073904] | 97.9%
27 | Cc1ccc2c(c1)OC(C)(C)CC2NS(C)(=O)=O (stereo not drawn) [CBK307620] | 81.5%
28 | COc1ccc(C)cc1CC(=O)N(C)CCN1CCCCC1 [CBK282750] | 88.7%
29 | O=C(COc1cccc(Br)c1)Nc1nnc[nH]1 [CBK264063] | 94.1%
30 | Cc1ccccc1CNC(=O)CN(c1cccc(C(F)(F)F)c1)S(=O)(=O)c1ccccc1 [CBK264047] | 102%
31 | COc1ccccc1C(=O)N[C@H]1C[C@@H](c2nc(-c3cnccn3)no2)N(C)C1 [CBK288850] | 96%
32 | CCN(CC)S(=O)(=O)c1cc(S(=O)(=O)N(CC)CC)c2cccc3c2c1NC(=O)O3 [CBK005022] | 85.3%
33 | O=C1CN(C(=O)NCc2cccc(C(F)(F)F)c2)CCN1 [CBK155850] | 105%
34 | CN1CCN(CC(O)COc2ccccc2)CC1 (stereo not drawn) [CBK278191G] | 83.8%
35 | COc1ccc(OC)c(NS(=O)(=O)N(C)C)c1 [CBK005362] | 94.1%
36 | O=c1[nH]c2ncc(-c3cccc4ncccc34)nc2n1Cc1ccccc1 [CBK064245] | 89.4%
37 | CC(C)(C)c1ccc(S(=O)(=O)N2CCCC[C@H]2COC(=O)COCC(=O)O)cc1 [CBK200064] | 96.6%
38 | CC(C)n1nnnc1-c1ccccc1NS(=O)(=O)c1cn[nH]c1 [CBK305542] | 88.6%
39 | CC(=O)N1CCN(c2ccc(NC(=O)c3cccc4c(Br)cccc34)cc2Cl)CC1 [CBK269624] | 93.8%
40 | COc1ccc(Sc2nccc(C(F)(F)F)n2)cc1OC [CBK093772] | 90.4%
41 | Nc1cc(S(=O)(=O)C(F)(F)F)ccc1C(=O)O [CBK286646] | 87%
42 | CCOc1ccc(/N=N\c2ccc(O)c(/C=N\Nc3ccc([N+](=O)[O-])cc3)c2)cc1 [CBK262111] | 97.7%
43 | CCOc1sc(=S)n(C)c1C(C)=O [CBK019515] | 88%
44 | O=C(Nc1nccc(N2CCNCC2)n1)c1cccs1 [CBK004305T] | 77.7%
45 | CCCCn1nccc1NC(=O)NC(C)c1ccncc1 (stereo not drawn) [CBK304840] | 99.2%
46 | CCCCC1CCC(C(=O)O)CC1 (stereo not drawn) [CBK122493] | 82.4%
47 | CSc1nc(C(=O)NC2CCCN(c3ncccn3)C2)cs1 (stereo not drawn) [CBK307198] | 98.7%

Row | SMILES | viability at 28.5 h, 10 µM
48 | CS(=O)(=O)c1ccc(-c2ccc(N)c3ccccc23)cc1 [CBK084326] | 95.4%
49 | N#Cc1ccc(NC(=O)CSc2cnn[nH]2)cc1 [CBK269931] | 87.7%
50 | CCOc1cc(-c2noc(CCC(=O)N3CCN(C)CC3)n2)ccc1OC [CBK269513] | 105%
51 | CC(=O)Nc1nc2cc3c(cc2s1)OCCO3 [CBK287618] | 96.2%
52 | COc1ccc2c3c1CCC(C)(C)C3COC2CCN1CCN(c2ccc(F)cc2)CC1 (stereo not drawn) [CBK024047C] | 86.7%
53 | c1nc(NCCN2CCOCC2)c2c3c(sc2n1)CCCCC3 [CBK268418] | 103%
54 | O=C(CSc1nnc(-c2ccco2)o1)c1ccc2c(c1)OCCO2 [CBK266387] | 105%
55 | COc1ccc(Cl)cc1NC(=O)CN(C1CCCCC1)S(=O)(=O)c1ccccc1 [CBK265159] | 108%
56 | Cc1c(C(=O)NC(Cc2cccs2)c2nccs2)cnn1C (stereo not drawn) [CBK285053] | 97.1%
57 | CCOC(=O)N1CCN(Cc2ccc(OCc3nccn3C)cc2)CC1 [CBK305413] | 94%
58 | c1ccc2c(c1)nc1n2CN(Cc2ccc3c(c2)OCO3)CN1 [CBK268087] | 99.1%
59 | CC(NC(=O)COc1ccc(Br)cc1)C(=O)O (stereo not drawn) [CBK262083] | 87.4%
60 | CSc1nnc(-c2ccccc2[N+](=O)[O-])n1CC(C)C [CBK074959] | 98.4%
61 | CC(=O)Nc1cccc(-c2cncc(NC3CCC(O)CC3)n2)c1 (stereo not drawn) [CBK065404] | 88.6%
62 | COc1ccc(-c2nn(-c3ccccc3)cc2C(=O)Nc2ccc(C(=O)O)cc2)cc1OC [CBK296112] | 95%
63 | O=C(Nc1ccccc1C(=O)O)c1cccc(C(=O)Nc2ccccc2C(=O)O)c1 [CBK261166] | 105%
64 | O=C1c2ccccc2C(=O)N1CCc1nnn[nH]1 [CBK007829] | 111%
65 | Cc1cc(O)ccc1-c1cncc(-c2ccc(O)cc2C)n1 [CBK115689] | 90.5%
66 | CC(=O)c1ccc(-c2cc(C(=O)Nc3ccc4c(c3)OCCO4)cnc2-c2ccc(Cl)cc2)s1 [CBK036627] | 105%
67 | COCc1cc(C[C@@H]2C[C@H](NC(=O)C(C)(C)C)C2(C)C)no1 [CBK289251] | 81.3%
68 | COc1ccccc1CNCc1ccccn1 [CBK262261] | 89.4%
69 | CC(C)c1ccc(-c2cncc(NCCCN3CCOCC3)n2)cc1 [CBK065196] | 97.7%
70 | CS(=O)(=O)c1ccc(CN2C[C@@H]3OCC(=O)N(c4ccccc4)[C@@H]3C2)cc1 [CBK289237] | 93.2%

Row | SMILES | viability at 28.5 h, 10 µM
71 | O=C(Nc1ccc(OC(F)F)cc1)Nc1c(Br)cnc2cccnc12 [CBK107632] | 87.8%
72 | CN1CCN(c2ccc(-c3cccc(N(C)C)c3)cn2)CC1 [CBK037621] | 102%
73 | NC(=O)CSc1nnc(-c2cc3ccccc3o2)n1Cc1ccccc1 [CBK268964] | 90.1%
74 | CC(C)(C)c1ccccc1NC(=O)N(CCN)Cc1cc(F)cc(F)c1 [CBK046263C] | 98.6%
75 | COc1cc(-c2cc(N(C)CCN(C)C)n3nccc3n2)cc(OC)c1OC [CBK037181] | 110%
76 | Cc1cccc(OCc2nnc(SCC(=O)Nc3cccc4ccccc34)o2)c1C [CBK267153] | 108%
77 | COCCCNC(=O)C1CCN(c2nc3c(-c4cccc(C)c4)csc3c(=O)[nH]2)CC1 [CBK215630] | 96.6%
78 | O=C1CC(C(=O)NCc2ccc(-c3csnn3)cc2)c2ccccc21 (stereo not drawn) [CBK149301] | 93.1%
79 | O=C(Cc1csc(NS(=O)(=O)c2ccc(-c3cccc([N+](=O)[O-])c3)cc2)n1)N1CCOCC1 [CBK200032] | 110%
80 | CC(=O)Nc1ccc(C(=O)CSc2nnc(-c3ccncc3)o2)cc1 [CBK266349] | 105%
81 | CN(C)CCCNC(=O)c1cc(C(C)(C)C)nn1Cc1ccc(Cl)cc1Cl [CBK107286] | 102%
82 | O=C(NCc1cn2ccccc2n1)c1ccc(C2SCCS2)cc1 [CBK295167] | 83.5%
83 | Cc1cccnc1C1(O)CCN(C(=O)Cc2ccccc2F)CC1 [CBK283617] | 97.8%
84 | C=CCOc1c(Br)cc(CNc2cccc(C(=O)O)c2)cc1OC [CBK074581] | 97.3%
85 | COc1ccc(-c2nn(-c3ccccc3)cc2C(=O)Nc2ccc(C(=O)O)cc2)cc1 [CBK296121] | 106%
86 | COCOc1ccc(-c2ncc(OCCN3CCCC3=O)nc2NC(C)=O)cc1 [CBK145253] | 104%
87 | CCn1c(=O)n(CC(=O)N2CCCC2)c2cccnc21 [CBK283904] | 107%
88 | Cc1cc(NS(=O)(=O)c2ccc(Cl)c([N+](=O)[O-])c2)n(C)n1 [CBK067259] | 96.8%
89 | Cc1cc(C)cc(NC(=O)NCCc2cccs2)c1 [CBK044998] | 93.2%
90 | Cc1cccn2c(=O)cc(CN3CCc4c(nc(C5CC5)n4C)C3)nc12 [CBK305256] | 99.2%
